Reference: publication PMC10096398, “Discovery of Novel EGFR Inhibitor Targeting Wild-Type and Mutant Forms of EGFR: In Silico and In Vitro Study” (Molecules, 2023)
Structures can show the parent of a compound that is named as a salt. Where two headings read alike, the source gives them in different places.

Columns and labels:
Vero = assay: MTT cell viability assay, normal cell line; assay type: cell-based, monkey; settings: 72 h, read-out: IC50 (μM) Vero
Description: (§1) The cytotoxicity activities of potent PD derivatives obtained from the SIE method against A549 and H1975, as well as Vero (which are adherent cells), were assessed using MTT (3-(4,5-dimethyl-2-thiazolyl)-2,5-diphenyl-2H-tetrazolium bromide) assays. The A549 and Vero cells were grown in complete DMEM medium whereas H1975 cells were grown in complete RPMI medium supplemented with 10% (v/v) FBS, 100 U/mL penicillin and 100 µg/mL streptomycin. All cells were routinely cultured at 37 °C in a 5% (v/v) CO2, 95% (v/v) air humidified incubator. A549 (5 × 10^3 cells per well), H1975 (5 × 10^3 cells per well), and Vero (2 × 10^3 cells per well) cells were seeded into 96-well plates and incubated overnight. After cell attachment, cells were replenished using fresh medium with 0.1% FBS containing various concentrations of potent PD derivatives and known drugs and then incubated at 37 °C for 72 h. After that, fresh medium containing MTT solution (5 mg/mL) was added and incubated at 37 °C. After 3 h, the formed formazan crystal was dissolved with 100 μL of dimethyl sulfoxide (DMSO). Finally, the absorbance of formazan solution was measured at a wavelength 570 nm using a microplate reader (Infinite M200 microplate reader, Tecan, Männedorf, Switzerland). The independent treatments were repeated in triplicate. The IC50 determination of compounds was achieved using GraphPad Prism version 9.0.

H1975 = assay: MTT cell viability assay; assay type: cell-based; settings: Homo sapiens, read-out: IC50 (μM) H1975
Description: as §1

A549 = assay: MTT cell viability assay; assay type: cell-based; settings: Homo sapiens, read-out: IC50 (μM) A549
Description: as §1

L858R/T790M EGFR = L858R/T790M EGFR (Homo sapiens, UniProt P00533, L858R/T790M); assay: EGFR inhibitory activity, ADP-Glo kinase assay; assay type: biochemical; settings: for IC50: ADP-Glo
Description: (§2) Firstly, 8 µL of buffer (40 mM Tris-HCl pH 7.5, 20 mM MgCl2, and 0.1 mg/mL bovine serum albumin) were added to a 384-well plate (Promega, solid white). […] Thirdly, 5 µL of the ADP-Glo reagent was added and incubated for 40 min. Finally, 10 µL of kinase detection reagent was added and incubated at room temperature for 30 min and was detected by measuring the luminescence using a microplate reader (Infinite M200 microplate reader, Tecan, Männedorf, Switzerland).

L858R/T790M/C797S EGFR = L858R/T790M/C797S EGFR (Homo sapiens, UniProt P00533, C797S/L858R/T790M); assay: EGFR inhibitory activity, ADP-Glo kinase assay; assay type: biochemical
Description: as §2

wild-type EGFR = wild-type EGFR (Homo sapiens, UniProt P00533); assay: EGFR inhibitory activity, ADP-Glo kinase assay; assay type: biochemical; settings: for IC50: ADP-Glo; for EGFR inhibitory screening: single 1 µM concentration
Description: as §2

[1] = Primates, Vero, Vero normal cells, MTT

Cc1ncc(Cn2ccnc2)c2cc(C(=O)c3ccc(Br)cc3)oc12.Cl
melting point: 278 to 280 °C

Cc1ncc(Cn2cnc(Cl)c2Cl)c2cc(C(=O)c3ccc(Br)cc3)oc12
melting point: 183 to 185 °C

Cc1ncc(CN2CCN(C=O)CC2)c2cc(C(=O)c3ccc(Br)cc3)oc12.Cl
melting point: 233 to 239 °C

Cc1ncc(CN2CCN(Cc3cccnc3)CC2)c2cc(C(=O)c3ccc4c(c3)OCCO4)oc12 (as salt: hydrochloride) [PD13, (2,3-Dihydrobenzo[d][1,4]dioxin-6-yl){7-methyl-4-[(4-(pyridin-3-ylmethyl)piperazin-1-yl)methyl]furo[2,3-c]pyridin-2-yl}methanone dihydrochloride]
melting point: 224 to 227 °C

CN(C)C/C=C/C(=O)Nc1cc2c(Nc3ccc(F)c(Cl)c3)ncnc2cc1O[C@H]1CCOC1 [Afatinib]
IC50 (Vero; Primates, Vero): > 50 µM
IC50 (H1975; NCI-H1975, 72 h): 27.3 ± 1.87 µM
IC50 (A549; A549, 72 h): 34.7 ± 0.67 µM

C#Cc1cccc(Nc2ncnc3cc(OCCOC)c(OCCOC)cc23)c1 [Erlotinib]
IC50 (Vero; Primates, Vero): > 30 µM
IC50 (H1975; NCI-H1975, 72 h): 41.8 ± 2.19 µM
IC50 (A549; A549, 72 h): 19.4 ± 0.79 µM

C=CC(=O)Nc1cc(Nc2nccc(-c3cn(C)c4ccccc34)n2)c(OC)cc1N(C)CCN(C)C [Osimertinib]
IC50 (Vero; Primates, Vero): > 50 µM
IC50 (H1975; NCI-H1975, 72 h): 18.3 ± 2 µM
IC50 (A549; A549, 72 h): 25.3 ± 1.21 µM

COc1ccc(C(=O)c2cc3c(CO)cnc(C)c3o2)cc1 [PD1, [4-Hydroxymethyl-7-methylfuro[2,3-c]pyridin-2-yl](4-methoxyphenyl)methanone]
melting point: 147 to 148 °C

Cc1ncc(CN2CCN(Cc3ccccn3)CC2)c2cc(C(=O)c3ccc(Br)cc3)oc12.Cl.Cl [PD3, (4-Bromophenyl){7-methyl-4-[(4-(pyridin-2-ylmethyl)piperazin-1-yl]methyl}furo[2,3-c]pyridin-2-yl)methanone dihydrochloride]
melting point: 224 to 225 °C

Cc1ncc(CN2CCN(Cc3cccnc3)CC2)c2cc(C(=O)c3ccc(Br)cc3)oc12.Cl.Cl [PD4, (4-Bromophenyl){7-methyl-4-[(4-(pyridin-3-ylmethyl)piperazin-1-yl]methyl}furo[2,3-c]pyridin-2-yl)methanone dihydrochloride]
IC50 (L858R/T790M EGFR): 91 ± 2.01 nM
melting point: 243 to 247 °C
IC50 (Vero; [1]): < 100 µM
IC50 (Vero; Vero normal cells, MTT): > 50 µM
IC50 (L858R/T790M/C797S EGFR): 104 ± 3.62 nM
IC50 (H1975; NCI-H1975, H1975, MTT, 72 h): 27.3 ± 1.02 µM
IC50 (A549; A549, MTT, 72 h): 19.7 ± 0.59 µM
IC50 (wild-type EGFR): 4.78 ± 0.73 nM
EGFR inhibitory activity compared to erlotinib (wild-type EGFR; ratio of IC50 values): > 2 fold
EGFR inhibitory screening (wild-type EGFR): only against wild-type EGFR

Cc1ncc(CN2CCN(CCC#N)CC2)c2cc(C(=O)c3ccc(Br)cc3)oc12 [PD10, 3-{4-[(2-(4-bromobenzoyl)-7-methylfuro[2,3-c]pyridin-4-yl)methyl]piperazin-1-yl}propanenitrile]
melting point: 129 to 132 °C

Cc1ncc(CN2CCN(Cc3cccnc3)CC2)c2cc(C(=O)c3ccc4c(c3)OCCO4)oc12 [PD13, (2,3-Dihydrobenzo[d][1,4]dioxin-6-yl){7-methyl-4-[(4-(pyridin-3-ylmethyl)piperazin-1-yl)methyl]furo[2,3-c]pyridin-2-yl}methanone dihydrochloride]
IC50 (L858R/T790M EGFR): 10.5 ± 0.71 nM
EGFR inhibitory screening (L858R/T790M EGFR; single 1 µM concentration): active
IC50 (Vero; [1]): > 100 µM
IC50 (L858R/T790M/C797S EGFR): 21.9 ± 1.79 nM
IC50 (nM) L858R/T790M/C797S (L858R/T790M/C797S EGFR): double-digit nanomolar range
IC50 (H1975; NCI-H1975, H1975, MTT, 72 h): 33.9 ± 0.86 µM
IC50 (A549; A549, MTT, 72 h): 18.1 ± 1.57 µM
IC50 (wild-type EGFR): 11.6 ± 1.3 nM
EGFR inhibitory screening (wild-type EGFR): active
